Several values for one entry are separate records, joined by “and”; a condition that tells them apart may be missing. Equal entries are not always repeated. Where two headings read alike, the source gives them in different places.
How the values were obtained:
[1] = test system: p53 signaling (p53RE-bla HCT-116 cells)
[2] = test system: p53 signaling (p53RE-bla HCT-116 cells); test: cells; type: cell-based
[3] = test system: p53 signaling (p53RE-bla HCT-116 cells); remark: listed apart in the source
[4] = Homo sapiens, HCT-116, read-out: p53 activation EC50, cherry pick confirmation
[5] = Homo sapiens, HCT-116, read-out: p53 activation EC50, primary screening
[6] = Homo sapiens, HCT-116, read-out: p53 activation efficacy, cherry pick confirmation
[7] = Homo sapiens, HCT-116, read-out: p53 activation efficacy, primary screening
[8] = Homo sapiens, HCT-116, read-out: EC50, p53 activation, primary screening
[9] = Homo sapiens, HCT-116, read-out: Efficacy, p53 activation, primary screening
[10] = read-out: p53 activation EC50, cherry pick confirmation
[11] = read-out: p53 activation EC50, primary screening

Row | Compound | Viability EC50, cherry pick confirmation (p53RE-bla HCT-116 cells) | Viability EC50, primary screening (p53RE-bla HCT-116 cells) | Viability efficacy, cherry pick confirmation (p53RE-bla HCT-116 cells) | Viability efficacy, primary screening (p53RE-bla HCT-116 cells) | p53 activation EC50, cherry pick confirmation [1] | p53 activation EC50, primary screening [1] | p53 activation efficacy, cherry pick confirmation [1] | p53 activation efficacy, primary screening [1] | EC50 [2, 4] [µM] | EC50 [2, 5] [µM] | Emax [2, 6] [%] | Emax [2, 7] [%] | p53 activation EC50, cherry pick confirmation [3] | p53 activation EC50, primary screening [3] | p53 activation efficacy, cherry pick confirmation [3] | p53 activation efficacy, primary screening [3] | p53 activation efficacy, cherry pick confirmation [2] | p53 activation efficacy, primary screening [2] | EC50 [2, 10] [µM] | further results
1 | NC(=O)c1ncn([C@@H]2O[C@H](CO)[C@@H](O)[C@H]2O)n1 [Ribavirin] | inactive | inactive | inactive | inactive | inactive | inactive | inactive | inactive | 10.8 | 24.3 | 43.7 | 31.4 | inactive | inactive | inactive | inactive | – | – | – | –
2 | CC(C)(C)C(=O)OCOP(=O)(COCCn1cnc2c(N)ncnc21)OCOC(=O)C(C)(C)C [Adefovir dipivoxil] | inactive | inactive | inactive | inactive | inactive | inactive | inactive | inactive | 1.47 | 5.18 | 60.8 | 106 | inactive | inactive | inactive | inactive | – | – | – | –
3 | COC1=CC(=O)C[C@@H](C)[C@]12Oc1c(Cl)c(OC)cc(OC)c1C2=O [Griseofulvin] | – | – | – | – | – | – | – | – | – | – | – | – | – | – | – | – | – | – | – | EC50, viability, cherry pick confirmation (p53RE-bla HCT-116 cells): inactive; EC50, viability, primary screening (p53RE-bla HCT-116 cells): inactive; Efficacy, viability, cherry pick confirmation (p53RE-bla HCT-116 cells): inactive; Efficacy, viability, primary screening (p53RE-bla HCT-116 cells): inactive; EC50, p53 activation, cherry pick confirmation [1]: inactive; EC50, p53 activation, primary screening [1]: inactive; Efficacy, p53 activation, cherry pick confirmation [1]: inactive; Efficacy, p53 activation, primary screening [1]: inactive; EC50, p53 activation, cherry pick confirmation [2]: inactive; Efficacy, p53 activation, cherry pick confirmation [2]: inactive; EC50 [2, 8]: 36.3 µM; Emax [2, 9]: 41.2%; EC50, p53 activation, cherry pick confirmation [3]: inactive; EC50, p53 activation, primary screening [3]: inactive; Efficacy, p53 activation, cherry pick confirmation [3]: inactive; Efficacy, p53 activation, primary screening [3]: inactive
4 | CC(C)CP(=S)([S-])CC(C)C.[Na+] [Sodium diisobutyldithiophosphinate] | inactive | inactive | inactive | inactive | inactive | – | inactive | – | – | – | – | – | inactive | – | inactive | – | 36.227 | inactive | 2.22 | p53 activation EC50, primary screening [2]: inactive
5 | COC(=O)Nc1nc2ccccc2[nH]1 [Carbendazim] | inactive | inactive | inactive | inactive | inactive | inactive | inactive | inactive | 11.9 | 10.3 | 62.2 | 67 | inactive | inactive | inactive | inactive | – | – | – | –
6 | Potassium dichromate | inactive | inactive | – | – | inactive | inactive | inactive | inactive | – | – | – | – | inactive | inactive | inactive | inactive | – | 47.8443 | 14.9 | EC50 (p53RE-bla HCT-116 cells; read-out: Viability EC50, cherry pick confirmation): 34.6 µM and 20.2 µM; EC50 (p53RE-bla HCT-116 cells; read-out: Viability EC50, primary screening): 21.3 µM and 31 µM; EC50 [2, 11]: 8.27 µM
7 | PharmaGSID_48505 | inactive | inactive | inactive | inactive | inactive | inactive | inactive | inactive | – | – | – | – | inactive | inactive | inactive | inactive | 67.8753 | 66.729 | 2.82 | EC50 [2, 11]: 0.396 µM
8 | O=C(O)c1c(O)c(-c2ccccc2)nc2ccccc12 [Oxycinchophen] | inactive | inactive | inactive | inactive | inactive | inactive | inactive | inactive | 23.1 | 16.6 | 87.1 | 60.5 | inactive | inactive | inactive | inactive | – | – | – | –
9 | CCC(C)c1cc([N+](=O)[O-])cc([N+](=O)[O-])c1OC(=O)OC(C)C (stereo not shown) [Dinobuton] | inactive | inactive | inactive | inactive | inactive | inactive | inactive | inactive | – | 49.5 | – | 74.7 | inactive | inactive | inactive | inactive | inactive | – | – | p53 activation EC50, cherry pick confirmation [2]: inactive
10 | CO/C=C(/C(=O)OC)c1ccccc1COc1cccc(C(F)(F)F)n1 [Picoxystrobin] | inactive | inactive | inactive | inactive | inactive | inactive | inactive | inactive | – | – | – | – | inactive | inactive | inactive | inactive | 51.0407 | 42.314 | 12.5 | EC50 [2, 11]: 4.78 µM
11 | O=C(NC(=O)c1c(F)cccc1F)Nc1cc(Cl)c(Oc2ncc(C(F)(F)F)cc2Cl)c(Cl)c1 [Chlorfluazuron] | inactive | inactive | inactive | inactive | inactive | inactive | inactive | inactive | – | 31.4 | – | 80.6 | inactive | inactive | inactive | inactive | inactive | – | – | p53 activation EC50, cherry pick confirmation [2]: inactive
12 | O=c1cc(-c2ccccc2)oc2cc(O)cc(O)c12 [Chrysin] | – | – | – | – | – | – | – | – | – | – | – | – | – | – | – | – | – | – | – | EC50, viability, cherry pick confirmation (p53RE-bla HCT-116 cells): inactive; EC50, viability, primary screening (p53RE-bla HCT-116 cells): inactive; Efficacy, viability, cherry pick confirmation (p53RE-bla HCT-116 cells): inactive; Efficacy, viability, primary screening (p53RE-bla HCT-116 cells): inactive; EC50, p53 activation, cherry pick confirmation [1]: inactive; EC50, p53 activation, primary screening [1]: inactive; Efficacy, p53 activation, cherry pick confirmation [1]: inactive; Efficacy, p53 activation, primary screening [1]: inactive; EC50 ([2]; Homo sapiens, HCT-116, read-out: EC50, p53 activation, cherry pick confirmation): 45 µM; EC50 [2, 8]: 49.5 µM; Emax ([2]; Homo sapiens, HCT-116, read-out: Efficacy, p53 activation, cherry pick confirmation): 43.6%; Emax [2, 9]: 38.6%; EC50, p53 activation, cherry pick confirmation [3]: inactive; EC50, p53 activation, primary screening [3]: inactive; Efficacy, p53 activation, cherry pick confirmation [3]: inactive; Efficacy, p53 activation, primary screening [3]: inactive

From publication PMC9151520 (Archives of Toxicology, 2022)
